Results reported in patent publication US20230416261A1, “ETHANEDIAMINE-HETEROCYCLE DERIVATIVES AS INHIBITORS OF PROTEIN ARGININE METHYLTRANSFERASES” (Board of Regents, The University of Texas System, priority 2021, published 2023).

Columns and labels:
PRMT1 [1] = biological target: T1, PRMT1 (Homo sapiens, UniProt Q99873); test: PRMT1 RKO Cellular Target Engagement Assay (In-Cell Western, asymmetric di-methyl arginine); format: cell-based; settings: RKO cells, 48 hr compound incubation; read-out: RKO IC50 (PRMT-1 Target Engagement)
T1 sequence (Q99873 whole entry): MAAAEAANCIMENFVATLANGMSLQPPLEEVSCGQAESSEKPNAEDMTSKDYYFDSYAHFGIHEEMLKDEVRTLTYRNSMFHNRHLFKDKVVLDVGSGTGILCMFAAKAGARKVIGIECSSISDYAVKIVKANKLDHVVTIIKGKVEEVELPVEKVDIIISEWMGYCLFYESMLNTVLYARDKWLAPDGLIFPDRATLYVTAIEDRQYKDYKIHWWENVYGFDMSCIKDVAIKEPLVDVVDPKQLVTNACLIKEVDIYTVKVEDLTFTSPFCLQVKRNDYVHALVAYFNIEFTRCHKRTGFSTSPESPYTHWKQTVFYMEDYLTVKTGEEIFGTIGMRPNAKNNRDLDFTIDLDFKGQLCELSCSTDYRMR
Outline: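 RKO cells (1,000/well) received 1:3 serially diluted compound for 48 h at 37 °C, then were fixed, permeabilised and immunostained for asymmetric di-methyl arginine by In-Cell Western. The 800 nm antibody signal was normalised to CellTag 700 nm; IC50 from four-parameter logistic fit.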

PATC53 cells = test: PATC53 Long Term Phenotypic Assay (14 days, crystal violet viability); format: cell-based; settings: 336 h
Procedure: PATC53 cells were derived from the PATC53 PDX model and kindly provided by Jason Fleming (MDACC). The cells were routinely maintained in DMEM/F12 Medium (Corning, Catalog #10-090-CV) supplemented with 10% fetal bovine serum (Sigma, Catalog #F2442), 100 units/mL penicillin and 100 μg/mL streptomycin (Gibco, Catalog #15140-122) in a humidified incubator (37° C., 5% CO2). Prior to the assay, cells were seeded onto a 12-well, TC treated plate (Corning, catalog #353043) at a density of 250 cells per well in a volume of 1 mL. The plate was incubated for 24 hours at 37° C. and 5% CO2. Stock solutions of the test compounds were prepared in 100% DMSO (Sigma, Catalog #D2650) and serially diluted 1:3 using 100% DMSO. Compounds were additionally diluted 1:100 in culture medium, and 110 μL/well was transferred to the tissue culture plate. Following the compound addition, the plate was incubated at 37° C. and 5% CO2 for 14 days. Viability was then assessed by crystal violet staining (Fisher Scientific, Catalog #C58125) as follows: 450 μL of crystal violet (1 mg/mL) was added to the plate for a 10 minute incubation at room temperature. After incubation, the plate was washed 3× with distilled water to remove excess dye and allowed to dry overnight. The crystal violet was solubilized using 10% HOAc (500 μL) for 10 minutes at room temperature, while shaking. A volume of 100 μL was then transferred to a 96-well SpectraPlate (Perkin Elmer, Catalog #6005649). Absorbance at 590 nm was measured with a BioTek Synergy Neo. IC50 values were calculated using a four-parameter logistic curve fit using Genedata Screener software.

DOHH2 cells = test: DOHH2 Long Term Phenotypic Assay (7 days, Cell Titer-Glo viability); format: cell-based; settings: Homo sapiens, DOHH-2, 168 h, Cell Titer-Glo 2.0
Outline: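 DOHH2 lymphoma cells (250 per well) in RPMI-1640 with 10% FBS were exposed to 1:3 serially diluted compounds for 7 days at 37 °C, 5% CO2. Viability was read by CellTiter-Glo 2.0 luminescence, and IC50 values came from four-parameter logistic fits.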

PRMT1 [2] = biological target: T1, PRMT1; test: PRMT1 Enzymatic Assay (LANCE TR-FRET, methylation of histone H4 at Arg3); format: biochemical; set-up: purchased SignalChem P365-380G; settings: PRMT1 1.5 nM, SAM 1 μM, biotinylated histone H4 (1-21) 25 nM; read-out: PRMT-1 IC50
Outline: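 PRMT1 (1.5 nM) preincubated 15 min with compound at room temperature, then reacted 1 h with 1 μM SAM and 25 nM biotinylated histone H4 (1-21) in 50 mM Hepes pH 8, 1 mM TCEP, 0.003% Tween-20. H4R3me detected by TR-FRET (665/620 nm ratio); IC50 from four-parameter logistic fit.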

| SMILES | IC50 (PRMT1 [1]) | IC50 (PATC53 cells) | IC50 (DOHH2 cells) | IC50 (PRMT1 [2]) |
| --- | --- | --- | --- | --- |
| COCC1(COC)CCC(c2c(CN(C)CCN)nn3c2CN(C(=O)C2CCC(F)(F)CC2)CC3)CC1 [Example 50, (2-(((2-aminoethyl)(methyl)-amino)methyl)-3-(4,4-bis-(methoxymethyl)cyclohexyl)-6,7-dihydropyrazolo[1,5-a]-pyrazin-5(4H)-yl)(4,4-difluorocyclohexyl)-methanone] | 1240 nM | 154 nM | 171 nM | 17 nM |
| COCC1(COC)CCC(c2c(CN(C)CCN)nn3c2CN(C(=O)C2CC(C)(C)C2)CC3)CC1 [Example 61, (2-(((2-aminoethyl)(methyl)-amino)methyl)-3-(4,4-bis-(methoxymethyl)cyclohexyl)-6,7-dihydropyrazolo[1,5-a]-pyrazin-5(4H)-yl)(3,3-dimethylcyclobutyl)-methanone] | 1950 nM | 68 nM | 224 nM | 23 nM |
| CNCCN(C)Cc1nn2c(c1C1CCC(COC)(COC)CC1)CN(C(=O)C1CC1)CC2 [Example 5, (3-(4,4-bis(methoxymethyl)-cyclohexyl)-2-((methyl(2-(methylamino)ethyl)amino)-methyl)-6,7-dihydropyrazolo-[1,5-a]pyrazin-5(4H)-yl)-(cyclopropyl)methanone] | 121 nM | 58 nM | 81 nM | 34 nM |
| CNCCN(C)Cc1nn2c(c1C1CCC(COC)(COC)CC1)CN(C(=O)C1(F)CC1)CC2 [Example 13, (3-(4,4-bis(methoxymethyl)-cyclohexyl)-2-((methyl(2-(methylamino)ethyl)amino)-methyl)-6,7-dihydropyrazolo-[1,5-a]pyrazin-5(4H)-yl)(1-fluorocyclopropyl)methanone] | 225 nM | 38 nM | 150 nM | 56 nM |
| CNCCN(C)Cc1nn2c(c1C1CCC(COC)(COC)CC1)CN(C(=O)C1(C)COC1)CC2 [Example 16, (3-(4,4-bis(methoxymethyl)-cyclohexyl)-2-((methyl(2-(methylamino)ethyl)amino)-methyl)-6,7-dihydropyrazolo-[1,5-a]pyrazin-5(4H)-yl)(3-methyloxetan-3-yl)methanone] | 370 nM | 209 nM | 160 nM | 64 nM |
| CNCCN(C)Cc1nn2c(c1C1CCC(COC)(COC)CC1)CN(C(=O)C1CCC(OC)CC1)CC2 (stereo not shown) [Example 48, (3-(4,4-bis(methoxymethyl)-cyclohexyl)-2-((methyl(2-(methylamino)ethyl)amino)-methyl)-6,7-dihydropyrazolo-[1,5-a]pyrazin-5(4H)-yl)(4-methoxycyclohexyl)-methanone] | 1410 nM | 247 nM | 284 nM | 156 nM |
| CNCCN(C)Cc1nn2c(c1C1CCC(COC)(COC)CC1)CN(C(=O)C13CC(OC)(C1)C3)CC2 [Example 25, (3-(4,4-bis(methoxymethyl)-cyclohexyl)-2-((methyl(2-(methylamino)ethyl)amino)-methyl)-6,7-dihydropyrazolo-[1,5-a]pyrazin-5(4H)-yl)(3-methoxybicyclo[1.1.1]pentan-1-yl)methanone] | 419 nM | 203 nM | 150 nM | 82 nM |
| CNCCN(C)Cc1nn2c(c1C1CCC(COC)(COC)CC1)CN(C(=O)C1(OC)CCC1)CC2 [Example 28, (3-(4,4-bis(methoxymethyl)-cyclohexyl)-2-((methyl(2-(methylamino)ethyl)amino)-methyl)-6,7-dihydropyrazolo-[1,5-a]pyrazin-5(4H)-yl)(1-methoxycyclobutyl)-methanone] | 907 nM | 435 nM | 207 nM | 139 nM |
| CNCCN(C)Cc1nn2c(c1C1CCC(COC)(COC)CC1)CN(C(=O)C1(OC)CC1)CC2 [Example 14, (3-(4,4-bis(methoxymethyl)-cyclohexyl)-2-((methyl(2-(methylamino)ethyl)amino)-methyl)-6,7-dihydropyrazolo-[1,5-a]pyrazin-5(4H)-yl)(1-methoxycyclopropyl)-methanone] | 124 nM | 478 nM | 211 nM | 94 nM |
| COCC1(COC)CCC(c2c(CN(C)CCN)nn3c2CN(C(=O)C24CC(C2)C4)CC3)CC1 [Example 44, (2-(((2-aminoethyl)(methyl)-amino)methyl)-3-(4,4-bis-(methoxymethyl)cyclohexyl)-6,7-dihydropyrazolo[1,5-a]-pyrazin-5(4H)-yl)(bicyclo-[1.1.1]pentan-1-yl)methanone] | 210 nM | 123 nM | 150 nM | 17 nM |
| CNCCN(C)Cc1nn2c(c1C1CCC(COC)(COC)CC1)CN(C(=O)C1CC(C)(C)C1)CC2 [Example 39, (3-(4,4-bis(methoxymethyl)-cyclohexyl)-2-((methyl(2-(methylamino)ethyl)amino)-methyl)-6,7-dihydropyrazolo-[1,5-a]pyrazin-5(4H)-yl)(3,3-dimethylcyclobutyl)-methanone] | 177 nM | 49 nM | 108 nM | 79 nM |
| CNCCN(C)Cc1nn2c(c1C1CCC(COC)(COC)CC1)CN(C(=O)C1CC(C(F)(F)F)C1)CC2 (stereo not shown) [Example 74, (3-(4,4-bis(methoxymethyl)-cyclohexyl)-2-((methyl(2-(methylamino)ethyl)amino)-methyl)-6,7-dihydropyrazolo-[1,5-a]pyrazin-5(4H)-yl)(3-(trifluoromethyl)cyclobutyl)-methanone] | 142 nM | 54 nM | 93 nM | 57 nM |
| COCC1(COC)CCC(c2c(CN(C)CCN)nn3c2CN(C(=O)C2(F)CCC2)CC3)CC1 [Example 49, (2-(((2-aminoethyl)(methyl)-amino)methyl)-3-(4,4-bis-(methoxymethyl)cyclohexyl)-6,7-dihydropyrazolo[1,5-a]-pyrazin-5(4H)-yl)(1-fluoro-cyclobutyl)methanone] | 329 nM | 118 nM | 166 nM | 13 nM |
| CNCCN(C)Cc1nn2c(c1C1CCC(COC)(COC)CC1)CN(C(=O)C1(C(C)(F)F)COC1)CC2 [Example 23, (3-(4,4-bis(methoxymethyl)-cyclohexyl)-2-((methyl(2-(methylamino)ethyl)amino)-methyl)-6,7-dihydropyrazolo-[1,5-a]pyrazin-5(4H)-yl)(3-(1,1-difluoroethyl)oxetan-3-yl)methanone] | 382 nM | 264 nM | 147 nM | 137 nM |
| COCC1(COC)CCC(c2c(CN(C)CCN)nn3c2CN(C(=O)C(C)C)CC3)CC1 [Example 43, 1-(2-(((2-aminoethyl)-(methyl)amino)methyl)-3-(4,4-bis(methoxymethyl)-cyclohexyl)-6,7-dihydro-pyrazolo[1,5-a]pyrazin-5(4H)-yl)-2-methylpropan-1-one] | 460 nM | 149 nM | 185 nM | 27 nM |
| COCC1(COC)CCC(c2c(CN(C)CCN)nn3c2CN(C(=O)C24CC(F)(C2)C4)CC3)CC1 [Example 45, (2-(((2-aminoethyl)(methyl)-amino)methyl)-3-(4,4-bis-(methoxymethyl)cyclohexyl)-6,7-dihydropyrazolo[1,5-a]-pyrazin-5(4H)-yl)(3-fluorobicyclo[1.1.1]pentan-1-yl)methanone] | 830 nM | 178 nM | 175 nM | 18 nM |
